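Briefly, cells in 96-well plates were exposed to five compound concentrations for 48 h, and endpoints were estimated by linear interpolation. GI50 = concentration required for 50% inhibition of growth.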 The source made the active and inactive calls. Cut-off read from the data, not from the text of the source: active = GI50 up to about 1.1 µM and inactive = higher.
Tests used:
Assay in all cases: NCI anticancer screen, dose series, 48 h
NCI-H226 = system: NCI-H226
UO-31 = system: UO-31
SN12C = system: SN12C
SF-295 = system: SF-295
XF498 = system: XF498
HOP-92 = system: HOP-92
OVCAR-4 = system: OVCAR-4
NCI-H23 = system: NCI-H23
RPMI-8226 = system: RPMI-8226
IGROV-1 = system: IGROV-1
HCC 2998 = system: HCC 2998
OVCAR-5 = system: OVCAR-5
SK-MEL-2 = system: SK-MEL-2
LXFL 529 = system: LXFL 529
A498 = system: A498
OVCAR-8 = system: OVCAR-8
HOP-62 = system: HOP-62
SNB-75 = system: SNB-75
SW-620 = system: SW-620
CAKI-1 = system: CAKI-1
TK-10 = system: TK-10
KM12 = system: KM12
HL-60 = system: HL-60
A549 = system: A549
LOX IMVI = system: LOX IMVI
CCRF-CEM = system: CCRF-CEM
M14 = system: M14
SK-MEL-5 = system: SK-MEL-5
ACHN = system: ACHN
M19-MEL = system: M19-MEL
COLO 205 = system: COLO 205
K562 = system: K562
NCI-H522 = system: NCI-H522
SNB-78 = system: SNB-78
SK-OV-3 = system: SK-OV-3
HCT-116 = system: HCT-116
HT-29 = system: HT-29
DMS-114 = system: DMS-114
EKVX = system: EKVX
U-251 = system: U-251
UACC-257 = system: UACC-257
KM-20L2 = system: KM-20L2
Malme-3M = system: Malme-3M
RXF 393 = system: RXF 393
SF-539 = system: SF-539
DLD-1 = system: DLD-1
SK-MEL-28 = system: SK-MEL-28
SF-268 = system: SF-268
SNB-19 = system: SNB-19
MOLT-4 = system: MOLT-4
NCI-H460 = system: NCI-H460
OVCAR-3 = system: OVCAR-3
786-0 = system: 786-0
UACC-62 = system: UACC-62
SR = system: SR
DMS-273 = system: DMS-273
HCT-15 = system: HCT-15

Measured: GI50

CCc1ccccc1NC(=O)C1=C(C)NC(C)=C(C(=O)Nc2ccccc2CC)C1c1ccccc1Cl
inactive: NCI-H226 > 100 µM | UO-31 35.5 µM | SN12C > 100 µM | SF-295 > 100 µM | HOP-92 57.1 µM | OVCAR-4 > 100 µM | NCI-H23 > 100 µM | RPMI-8226 > 100 µM | IGROV-1 > 100 µM | HCC 2998 > 100 µM | OVCAR-5 > 100 µM | SK-MEL-2 > 100 µM | LXFL 529 > 100 µM | A498 18.7 µM | OVCAR-8 > 100 µM | HOP-62 > 100 µM | SNB-75 71.6 µM | SW-620 > 100 µM | CAKI-1 > 100 µM | TK-10 > 100 µM | KM12 > 100 µM | HL-60 64.6 µM | A549 > 100 µM | LOX IMVI > 100 µM | CCRF-CEM 37.8 µM | M14 > 100 µM | SK-MEL-5 > 100 µM | ACHN 47.4 µM | M19-MEL > 100 µM | COLO 205 > 100 µM | K562 > 100 µM | NCI-H522 69.5 µM | SNB-78 > 100 µM | SK-OV-3 > 100 µM | HCT-116 > 100 µM | HT-29 > 100 µM | DMS-114 > 100 µM | EKVX > 100 µM | U-251 > 100 µM | UACC-257 > 100 µM | KM-20L2 > 100 µM | Malme-3M > 100 µM | RXF 393 > 100 µM | SF-539 > 100 µM | DLD-1 > 100 µM | SK-MEL-28 > 100 µM | SF-268 > 100 µM | SNB-19 > 100 µM | MOLT-4 92.7 µM | NCI-H460 > 100 µM | OVCAR-3 > 100 µM | 786-0 > 100 µM
active: XF498 0.152 µM

COc1ccc([C@@]2(O)c3c(ccc(O)c3OC)[C@H]2OC)c(OC)c1
inactive: NCI-H226 > 100 µM | UO-31 69.3 µM | SN12C 71.8 µM | SF-295 29.2 µM | XF498 41.7 µM | HOP-92 53.6 µM | OVCAR-4 67.9 µM | NCI-H23 34.6 µM | RPMI-8226 30.1 µM | IGROV-1 > 100 µM | HCC 2998 44.2 µM | OVCAR-5 > 100 µM | SK-MEL-2 63.4 µM | LXFL 529 30.2 µM | A498 > 100 µM | OVCAR-8 51.5 µM | HOP-62 > 100 µM | SNB-75 39.6 µM | SW-620 46.6 µM | CAKI-1 35.7 µM | TK-10 27.1 µM | KM12 39.4 µM | HL-60 31.6 µM | A549 85.1 µM | CCRF-CEM 36.6 µM | M14 > 100 µM | SK-MEL-5 48.6 µM | ACHN 86.1 µM | M19-MEL 48.5 µM | COLO 205 44.2 µM | K562 36.5 µM | NCI-H522 28.8 µM | SK-OV-3 28.6 µM | HCT-116 33.5 µM | HT-29 37.2 µM | DMS-114 22.1 µM | EKVX > 100 µM | UACC-62 > 10 µM | U-251 45.8 µM | UACC-257 > 100 µM | KM-20L2 66.5 µM | Malme-3M > 100 µM | DLD-1 47.3 µM | SK-MEL-28 47.8 µM | SF-268 75.9 µM | SNB-19 > 100 µM | MOLT-4 34.7 µM | SR 35.6 µM | NCI-H460 > 100 µM | OVCAR-3 68.2 µM | 786-0 41.8 µM

N#CCc1cccc(CC#N)c1Br
> 100 µM: HCT-15
inactive: NCI-H226 > 100 µM | UO-31 > 100 µM | SN12C > 100 µM | SF-295 > 100 µM | XF498 > 100 µM | HOP-92 45.2 µM | OVCAR-4 > 100 µM | NCI-H23 > 100 µM | RPMI-8226 > 100 µM | IGROV-1 > 100 µM | OVCAR-5 > 100 µM | SK-MEL-2 > 100 µM | LXFL 529 > 100 µM | OVCAR-8 > 100 µM | HOP-62 > 100 µM | SNB-75 > 100 µM | SW-620 > 100 µM | CAKI-1 > 100 µM | KM12 > 100 µM | HL-60 > 100 µM | A549 > 100 µM | LOX IMVI > 100 µM | CCRF-CEM > 100 µM | M14 > 100 µM | ACHN > 100 µM | COLO 205 > 100 µM | K562 > 100 µM | NCI-H522 > 100 µM | DMS-273 > 100 µM | SNB-78 > 100 µM | SK-OV-3 > 100 µM | HCT-116 > 100 µM | HT-29 > 100 µM | DMS-114 > 100 µM | EKVX > 100 µM | UACC-62 > 100 µM | U-251 > 100 µM | UACC-257 > 100 µM | KM-20L2 > 100 µM | Malme-3M > 100 µM | RXF 393 35 µM | SF-539 > 100 µM | DLD-1 > 100 µM | SF-268 86.5 µM | SNB-19 > 100 µM | MOLT-4 > 100 µM | SR > 100 µM | NCI-H460 > 100 µM | OVCAR-3 > 100 µM | 786-0 > 100 µM

C/C(=N\NC(=O)c1ccccc1O)c1cccc(/C(C)=N/NC(=O)c2ccccc2O)n1.[Cl-].[Cl-].[Zn+2]
7.35 µM: HCT-15
inactive: SF-295 9.98 µM | XF498 21.2 µM | HOP-92 10.6 µM | HCC 2998 2.01 µM | SK-MEL-2 15.2 µM | LXFL 529 1.34 µM | OVCAR-8 2.18 µM | SNB-75 17.9 µM | SW-620 5.85 µM | TK-10 10.2 µM | KM12 6.25 µM | A549 10.8 µM | LOX IMVI 1.37 µM | M14 7.96 µM | SK-MEL-5 10.4 µM | ACHN 2.17 µM | SK-OV-3 6.15 µM | DMS-114 2.97 µM | EKVX 19.6 µM | UACC-62 2.11 µM | Malme-3M 10.8 µM | RXF 393 8.05 µM | SF-268 2.11 µM | MOLT-4 1.59 µM | SR 1.44 µM
